Reference: US12421230B2, “Tricyclic heteroaryl compounds useful as IRAK4 inhibitors” (BRISTOL-MYERS SQUIBB COMPANY, priority 2020, dated 2025)
Where a name gives a salt, the structure may show the parent alone.

The compounds below were run against T1, IRAK4 (Homo sapiens, UniProt Q9NWZ3) (assay: IRAK4 Inhibition Assay). Details: ATP 500 μM; fluoresceinated peptide 1.5 μM; IRAK4 0.6 nM; 60 min room temperature; Caliper LABCHIP.
T1 sequence (Q9NWZ3 1-460): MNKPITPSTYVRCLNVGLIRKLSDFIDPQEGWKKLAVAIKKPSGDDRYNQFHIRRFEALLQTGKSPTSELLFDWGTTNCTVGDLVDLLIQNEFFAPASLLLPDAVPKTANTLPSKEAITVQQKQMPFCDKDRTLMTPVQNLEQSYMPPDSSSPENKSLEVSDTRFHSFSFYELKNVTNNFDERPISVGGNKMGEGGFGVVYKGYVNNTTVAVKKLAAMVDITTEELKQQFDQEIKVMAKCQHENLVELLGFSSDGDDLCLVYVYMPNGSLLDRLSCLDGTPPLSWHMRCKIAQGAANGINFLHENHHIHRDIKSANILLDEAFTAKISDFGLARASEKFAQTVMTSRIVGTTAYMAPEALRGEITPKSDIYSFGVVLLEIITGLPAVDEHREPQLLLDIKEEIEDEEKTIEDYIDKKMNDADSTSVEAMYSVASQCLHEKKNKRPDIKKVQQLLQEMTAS
Format: biochemical
Method: The assays were performed in U-bottom 384-well plates. The final assay volume was 30 μL prepared from 15 μL additions of enzyme and substrates (fluoresceinated peptide and ATP) and test compounds in assay buffer (20 mM HEPES pH 7.2, 10 mM MgCl2, 0.015% Brij 35 and 4 mM DTT). The reaction was initiated by the combination of IRAK4 with substrates and test compounds. The reaction mixture was incubated at room temperature for 60 min. and terminated by adding 45 μL of 35 mM EDTA to each sample. The reaction mixture was analyzed on the Caliper LABCHIP® 3000 (Caliper, Hopkinton, MA) by electrophoretic separation of the fluorescent substrate and phosphorylated product. Inhibition data were calculated by comparison to no enzyme control reactions for 100% inhibition and vehicle-only reactions for 0% inhibition. The final concentrations of reagents in the assays are ATP, 500 μM; FL-IPTSPITTTYFFFKKK peptide 1.5 μM; IRAK4, 0.6 nM; and DMSO, 1.6%.

In order of rising IC50:
1. CC(C)CCn1cc(-c2cnc3c([nH]c4cc(C#N)ccc43)c2NC(C)C)nn1 [Example 73, 3-(1-isopentyl-1H-1,2,3-triazol-4-yl)-4-(isopropylamino)-5H-pyrido[3,2-b]indole-7-carbonitrile]  0.0015 µM
2. CC(C)Nc1c(C(=O)NCCC(C)(C)N)cnc2c1[nH]c1cc(C#N)ccc12 [Example 52, N-(3-amino-3-methylbutyl)-7-cyano-4-(isopropylamino)-5H-pyrido[3,2-b]indole-3-carboxamide]  0.0033 µM
3. CC(C)(O)CCNC(=O)c1cnc2c([nH]c3cc(C#N)ccc32)c1NC1COC1 [Example 41, 7-cyano-N-(3-hydroxy-3-methylbutyl) (oxetan-3-ylamino)-5H-pyrido[3,2-b]indole-3-carboxamide]  0.0092 µM
4. C[C@H](Nc1c(C(=O)NCCC(C)(C)O)cnc2c1[nH]c1cc(C#N)ccc12)C1CC1 [Example 29, (S)-7-cyano-4-((1-cyclopropylethyl)amino)-N-(3-hydroxy-3-methylbutyl)-5H-pyrido[3,2-b]indole-3-carboxamide]  0.011 µM
5. CC(C)Nc1c(C(=O)NC2CCNCC2)cnc2c1[nH]c1cc(C#N)ccc12 [Example 19, 7-cyano (isopropylamino)-N-(piperidin-4-yl)-5H-pyrido[3,2-b]indole-3-carboxamide]  0.02 µM
6. CC(C)Nc1c(-c2cc(C3CCCNC3)no2)cnc2c1[nH]c1cc(C#N)ccc12 (stereo not shown) [Example 79, 4-(isopropylamino)-3-(3-(piperidin-3-yl)isoxazol-5-yl)-5H-pyrido[3,2-b]indole-7-carbonitrile]  0.022 µM
7. CC(=O)N[C@H]1C[C@H](NC(=O)c2cnc3c([nH]c4cc(C#N)ccc43)c2NC(C)C)C1 [Example 49, N-((1R,3R)-3-acetamidocyclobutyl)-7-cyano-4-(isopropylamino)-5H-pyrido[3,2-b]indole-3-carboxamide]  0.022 µM
8. CCNc1c(C(=O)NCCC2CCCCN2)cnc2c1[nH]c1cc(C#N)ccc12 (stereo not shown) [Example 58, 7-cyano-4-(ethylamino)-N-(2-(piperidin-2-yl)ethyl)-5H-pyrido[3,2-b]indole-3-carboxamide]  0.024 µM
9. CC(C)Nc1c(-c2cc(C3CNCCO3)no2)cnc2c1[nH]c1cc(C#N)ccc12 (stereo not shown) [Example 78, 4-(isopropylamino)-3-(3-(morpholin-2-yl)isoxazol-5-yl)-5H-pyrido[3,2-b]indole-7-carbonitrile]  0.026 µM
10. CC(C)Nc1c(C(=O)NC2CCOCC2)cnc2c1[nH]c1cc(C#N)ccc12 [Example 11, 7-cyano-4-(isopropylamino)-N-(tetrahydro-2H-pyran-4-yl)-5H-pyrido[3,2-b]indole-3-carboxamide]  0.027 µM
11. CC(C)Nc1c(C(=O)NC[C@@H](F)C(C)(C)O)cnc2c1[nH]c1cc(-c3cn[nH]c3)ccc12 [Example 67, (R)—N-(2-fluoro-3-hydroxy-3-methylbutyl)-4-(isopropylamino)-7-(1H-pyrazol-4-yl)-5H-pyrido[3,2-b]indole-3-carboxamide]  0.03 µM
12. CC(C)(O)CCNC(=O)c1cnc2c([nH]c3cc(C#N)ccc32)c1NCC1CC1 [Example 33, 7-cyano-4-((cyclopropylmethyl)amino)-N-(3-hydroxy-3-methylbutyl)-5H-pyrido[3,2-b] indole-3-carboxamide]  0.0308 µM
13. CC(C)(O)CCNC(=O)c1cnc2c([nH]c3cc(C#N)ccc32)c1N[C@@H]1CCOC1 [Example 26, (R)-7-cyano-N-(3-hydroxy-3-methylbutyl)-4-((tetrahydrofuran-3-yl)amino)-5H-pyrido[3,2-b] indole-3-carboxamide]  0.033 µM
14. COC(=O)N[C@H]1C[C@H](NC(=O)c2cnc3c([nH]c4cc(C#N)ccc43)c2NC(C)C)C1 [Example 50, methyl ((1R,3R)-3-(7-cyano-4-(isopropylamino)-5H-pyrido[3,2-b]indole-3-carboxamido)cyclobutyl)carbamate]  0.033 µM
15. N#Cc1ccc2c(c1)[nH]c1c(NC3CC3)c(C(=O)N[C@H]3C[C@H](O)C3)cnc12 [Example 45, 7-cyano (cyclopropylamino)-N-((1R,3R)-3-hydroxycyclobutyl)-5H-pyrido[3,2-b]indole carboxamide]  0.033 µM
16. CC(C)Nc1c(C(=O)NC2CCCOC2)cnc2c1[nH]c1cc(C#N)ccc12 (stereo not shown) [Example 6, 7-cyano-4-(isopropylamino)-N-(tetrahydro-2H-pyran-3-yl)-5H-pyrido[3,2-b]indole-3-carboxamide]  0.037 µM
17. CC(C)Nc1c(C(=O)N[C@H]2C[C@H](N)C2)cnc2c1[nH]c1cc(C#N)ccc12 [Example 47, N-((1R,3R)-3-aminocyclobutyl)-7-cyano (isopropylamino)-5H-pyrido[3,2-b]indole-3-carboxamide]  0.04 µM
18. CC(C)(O)CCNC(=O)c1cnc2c([nH]c3cc(C#N)ccc32)c1N[C@H]1CCOC1 [Example 28, (S)-7-cyano-N-(3-hydroxy-3-methylbutyl)-4-((tetrahydrofuran-3-yl)amino)-5H-pyrido[3,2-b]indole-3-carboxamide]  0.048 µM
19. CC(C)(O)[C@H](F)CNC(=O)c1cnc2c([nH]c3cc(C#N)ccc32)c1NC1CCN(S(C)(=O)=O)CC1 [Example 64, (R)-7-cyano-N-(2-fluoro-3-hydroxy-3-methylbutyl)-4-((1-(methylsulfonyl)piperidin-4-yl)amino)-5H-pyrido[3,2-b]indole-3-carboxamide]  0.053 µM
20. CC(C)Nc1c(C(=O)NCCc2nnn[nH]2)cnc2c1[nH]c1cc(C#N)ccc12 [Example 65, N-(2-(1H-tetrazol-5-yl)ethyl)-7-cyano-4-(isopropylamino)-5H-pyrido[3,2-b]indole-3-carboxamide]  0.1 µM
21. CC(C)Nc1c(C(=O)N[C@H]2C[C@@H](O)C2)cnc2c1[nH]c1cc(C#N)ccc12 [Example 24, 7-cyano-N-((1s,3s)-3-hydroxycyclobutyl)-4-(isopropylamino)-5H-pyrido[3,2-b]indole-3-carboxamide]  0.12 µM
22. CC(C)Nc1c(C(=O)NCCC(C)(C)O)cnc2c1[nH]c1cc(C(N)=O)ccc12 [Example 48, N3-(3-hydroxy-3-methylbutyl)-4-(isopropylamino)-5H-pyrido[3,2-b]indole-3,7-dicarboxamide]  0.24 µM
23. CC(C)Nc1c(C(=O)NC(CCO)C2CC2)cnc2c1[nH]c1cc(C#N)ccc12 (stereo not shown) [Example 16, 7-cyano-N-(1-cyclopropyl-3-hydroxypropyl)-4-(isopropylamino)-5H-pyrido[3,2-b]indole-3-carboxamide]  0.31 µM
24. CC(C)Nc1c(C(=O)NCC(C)(C)CO)cnc2c1[nH]c1cc(C#N)ccc12 [Example 9, 7-cyano-N-(3-hydroxy-2,2-dimethylpropyl)-4-(isopropylamino)-5H-pyrido[3,2-b]indole-3-carboxamide]  0.33 µM
25. CCCc1noc(-c2cnc3c([nH]c4cc(C#N)ccc43)c2NC(C)C)n1 [Example 72, 4-(isopropylamino)-3-(3-propyl-1,2,4-oxadiazol-5-yl)-5H-pyrido[3,2-b]indole-7-carbonitrile]  0.36 µM
26. CCCc1nc(-c2cnc3c([nH]c4cc(C#N)ccc43)c2NC(C)C)n[nH]1 [Example 71, 4-(isopropylamino)-3-(5-propyl-1H-1,2,4-triazol-3-yl)-5H-pyrido[3,2-b]indole carbonitrile]  0.5 µM
27. COc1ccc(CNc2c(C(=O)NCCC(C)(C)O)cnc3c2[nH]c2cc(C#N)ccc23)cc1OC [Example 56, 7-cyano-4-((3,4-dimethoxybenzyl)amino)-N-(3-hydroxy-3-methylbutyl)-5H-pyrido[3,2-b]indole-3-carboxamide]  0.51 µM
28. CC(C)Nc1c(C(=O)NC[C@@H](F)C(C)(C)O)cnc2c1[nH]c1cc(C#N)cnc12 [Example 69, (R)-7-cyano-N-(2-fluoro-3-hydroxy-3-methylbutyl)-4-(isopropylamino)-5H-pyrrolo [3,2-b:4,5-b′]dipyridine-3-carboxamide]  0.54 µM
29. CC(C)Nc1c(C(=O)NC[C@@H](F)C(C)(C)O)cnc2c1[nH]c1cc(-c3ccc(=O)[nH]c3)ccc12 [Example 68, (R)—N-(2-fluoro-3-hydroxymethylbutyl)-4-(isopropylamino)-7-(6-oxo-1,6-dihydropyridin-3-yl)-5H-pyrido[3,2-b]indole-3-carboxamide]  0.58 µM
30. CC(C)Nc1c(C(=O)NCCC2CC2)cnc2[nH]c3ccc(C#N)cc3c12 [Example 82, 6-cyano-N-(2-cyclopropylethyl)-4-(isopropylamino)-9H-pyrido[2,3-b]indole-3-carboxamide]  0.65 µM
31. CC(C)Cc1nc(-c2cnc3c([nH]c4cc(C#N)ccc43)c2NC(C)C)n[nH]1 [Example 70, 3-(5-isobutyl-1H-1,2,4-triazol-3-yl)-4-(isopropylamino)-5H-pyrido[3,2-b]indole-7-carbonitrile, TFA]  1.7 µM
